Reference: PMC6386767, “Characterization of recombinant fructose-1,6-bisphosphatase gene mutations: evidence of inhibition/activation of FBPase protein by gene mutation” (Bioscience Reports, 2019)
Where a chain is given by its changes, count along the chain named.

Assays:
Format in all cases: binding
[1] = molecular target: T1, pig kidney FBPase K112A (Sus scrofa, UniProt P00636, K113A); experiment: Differential scanning fluorimetry, K112A mutant; conditions: enzyme K112A
T1 construct: His6 (C); made in house; host or cells: Escherichia coli BL21 (DE3)
T1 sequence (P00636 1-338 K113A): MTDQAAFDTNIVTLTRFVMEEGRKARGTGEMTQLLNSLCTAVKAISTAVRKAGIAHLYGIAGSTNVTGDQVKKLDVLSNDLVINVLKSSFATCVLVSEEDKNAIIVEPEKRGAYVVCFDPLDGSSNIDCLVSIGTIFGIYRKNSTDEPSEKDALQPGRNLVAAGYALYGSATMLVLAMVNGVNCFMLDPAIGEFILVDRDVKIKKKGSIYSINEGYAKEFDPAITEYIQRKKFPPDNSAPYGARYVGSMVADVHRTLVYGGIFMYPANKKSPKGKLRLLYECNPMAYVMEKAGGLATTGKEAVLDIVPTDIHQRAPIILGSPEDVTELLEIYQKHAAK
Method: (§1) Differential scanning fluorimetry (DSF) assays were designed and implemented to run on WT and each mutant for the purpose of determining relative stabilities by melting point, and to detect structural changes in the enzymes upon ligand binding. Thermal shift assays were performed with a Light Cycler 96 System Real-Time PCR machine (Roche) using Sypro-Orange dye (Invitrogen) and thermal ramping (0.25°C per min between 20 and 85°C). […] Data were processed using the Boltzmann equation to generate sigmoidal denaturation curves, and average Tm/ΔTm values were calculated as previously described using GraphPad Prism software package.

[2] = molecular target: T2, pig kidney FBPase L73A (Sus scrofa, UniProt P00636, L74A); experiment: Differential scanning fluorimetry, L73A mutant; conditions: enzyme L73A
T2 construct: His6 (C); made in house; host or cells: Escherichia coli BL21 (DE3)
T2 sequence (P00636 1-338 L74A): T1 sequence (P00636 1-338 K113A) with L74A, A113K
Method: as §1

[3] = molecular target: T3, pig kidney FBPase M177A (Sus scrofa, UniProt P00636, M178A); experiment: Differential scanning fluorimetry, M177A mutant; conditions: enzyme M177A
T3 construct: His6 (C); made in house; host or cells: Escherichia coli BL21 (DE3)
T3 sequence (P00636 1-338 M178A): T1 sequence (P00636 1-338 K113A) with A113K, M178A
Method: as §1

[4] = molecular target: T4, pig kidney FBPase Y164A (Sus scrofa, UniProt P00636, Y165A); experiment: Differential scanning fluorimetry, Y164A mutant; conditions: enzyme Y164A
T4 construct: His6 (C); made in house; host or cells: Escherichia coli BL21 (DE3)
T4 sequence (P00636 1-338 Y165A): T1 sequence (P00636 1-338 K113A) with A113K, Y165A
Method: as §1

[5] = molecular target: T5, pig kidney FBPase Y113A (Sus scrofa, UniProt P00636, Y114A); experiment: Differential scanning fluorimetry, Y113A mutant; conditions: enzyme Y113A
T5 construct: His6 (C); made in house; host or cells: Escherichia coli BL21 (DE3)
T5 sequence (P00636 1-338 Y114A): T1 sequence (P00636 1-338 K113A) with A113K, Y114A
Method: as §1

Nc1ncnc2c1ncn2[C@@H]1O[C@H](COP(=O)(O)O)[C@@H](O)[C@H]1O [AMP]
reduction in melting temperature, presence of AMP vs absence of ligand [1]: 5–9 °
melting point of enzyme with AMP (100 µM) ([1]; AMP 100 µM): 42.0 (± 2.50) °C
melting point of enzyme with AMP (100 µM) ([2]; AMP 100 µM): 56.0 (± 3.00) °C
melting point of enzyme with AMP (100 µM) ([3]; AMP 100 µM): 54.1 (± 1.25) °C
melting point of enzyme with AMP (100 µM) ([4]; AMP 100 µM): 55.0 (± 2.25) °C
reduction in melting temperature, presence of AMP vs absence of ligand [5]: 5–9 °
melting point of enzyme with AMP (100 µM) ([5]; AMP 100 µM): 45.0 (± 1.25) °C

[Mg+2] [Mg^2+, magnesium]
melting point of enzyme with Mg^2+ ([…]) ([1]; Mg^2+ […]): 51.0 (± 2.50) °C
melting point of enzyme with Mg^2+ ([…]) ([2]; Mg^2+ […]): 56.5 (±2.25) °C
melting point of enzyme with Mg^2+ ([…]) ([3]; Mg^2+ […]): 55.8 (± 1.75) °C
melting point of enzyme with Mg^2+ ([…]) ([4]; Mg^2+ […]): 55.2 (± 1.75) °C
melting point of enzyme with Mg^2+ ([…]) ([5]; Mg^2+ […]): 52.0 (± 1.50) °C
